Data on 10 compounds can be found in ChEMBL document CHEMBL1139723, “Novel imidazole-based combretastatin A-4 analogues: evaluation of their in vitro antitumor activity and molecular modeling study of their binding to the colchicine site of tubulin” (Bioorg Med Chem Lett, 2006).

A short description of series [1]: Cytotoxicity against MDR HCT15 cells. Particulars: human, MDR HCT-15 cells. It counts as cell-based.
The nature of series [2]: Cytotoxicity against NCI60 cell line. It counts as cell-based. Particulars: human.
Series [3] is described as follows: Cytotoxicity against NCI-H460 cells. As to conditions: human. It counts as cell-based.
Series [4] deals with HCC 2998. The series can be described thus: Tumor growth inhibition against HCC2998 cells. Type of series: functional. As to conditions: Homo sapiens, read-out: Log TGI (converted).
Series [5] relates to HL-60. The series can be described thus: Tumor growth inhibition against HL60 cells. It counts as functional. Particulars: Homo sapiens, read-out: Log TGI (converted).
Series [6] in a line: Tumor growth inhibition of […] cells xenografted in immunodeficient mouse at 150 mg/kg/day after 25 days. Type of series: functional. Particulars: Homo sapiens, 600 h.

In the case of `COc1ccc(-c2nccn2-c2cc(OC)c(OC)c(OC)c2)cc1`, the GI50 in series [1] is 1150 nM. In series [2], the “Log TGI” value is -4.16 and the pGI50 came to 5.34. This compound also displayed a GI50 in series [3] of 1580 nM.
The like results for `COc1ccc(-c2cncn2-c2ccc(OC)cc2)cc1` were, in that order, 19500 nM, -4.32, 4.8 and 15500 nM.
Take `COc1cc(-n2cncc2-c2ccc3ccccc3c2)cc(OC)c1OC`: the GI50 in series [1] was determined as 17 nM. In series [2], the “Log TGI” value is reported as -4.4 and the pGI50 is recorded as 7.14. Further, the TGI in series [4] was 29.5 nM. In addition, in series [3], the GI50 was determined as 18 nM.
In series [1], `COc1cc(-c2nccn2-c2ccc3ccccc3c2)cc(OC)c1OC` yielded a GI50 of 22 nM. Also, in series [2], the “Log TGI” value was -4.8 and the pGI50 is given as 6.86. In series [3], this compound registered a concentration for 50% growth inhibition (GI50) of 21 nM.
The corresponding values for `COc1cc(-n2ccnc2-c2ccc3ccccc3c2)cc(OC)c1OC` are 51 nM, -4.68, 6.82 and 37 nM.
The corresponding values for `COc1ccc(-n2ccnc2-c2cc(OC)c(OC)c(OC)c2)cc1` are 1150 nM, -4.32, 5.45 and 2340 nM.
The compound `COc1ccc(-c2cncn2-c2cc(OC)c(OC)c(OC)c2)cc1F` displayed a GI50 in series [1] of less than 10 nM. Besides, in series [2], the “Log TGI” value is recorded as -4.51 and the pGI50 was 7.4. The TGI in series [5] is less than 28.8 nM. This compound also came in with a GI50 in series [3] of less than 10 nM.
In series [1], `COc1ccc(-c2cncn2-c2cc(OC)c(OC)c(OC)c2)cc1` came in with a GI50 of 170 nM. Also, in series [2], the “Log TGI” value was -4.71 and the pGI50 was 6.59. For the same compound, the inhibition in vivo at 150 mg/kg/day in series [6] was 52%. In series [3], the GI50 stood at 363 nM.
In series [1], `COc1ccc(-c2nccn2-c2ccc(OC)cc2)cc1` came in with a 50% growth inhibitory concentration (GI50) of 22900 nM. In series [2], the “Log TGI” value is -4.19 and the pGI50 turned out to be 4.76. Further, the GI50 in series [3] worked out at 17800 nM.
The like results for `COc1ccc(/C=C\c2cc(OC)c(OC)c(OC)c2)cc1O` [COMBRETASTATIN A4] were, in that order, less than 10 nM, -5.03, 7 and less than 10 nM.

The term GI50 denotes the concentration at which growth is held to half of that of the control. Low readings indicate greater sensitivity of the cells, high ones lower sensitivity of the cells. In general, pGI50 refers to the GI50 on a negative log10 scale, so that one unit is a factor of ten. Low values mean a high GI50, high ones a low GI50. A word on the TGI: it is the concentration giving total growth inhibition. What is called inhibition in vivo is the drop in the measured response relative to a control, in per cent. Higher therefore signals strong suppression.
